From patent publication US10131652B2, “Pyrimidinyloxy benzene derivatives as herbicides” (E. I. DU PONT DE NEMOURS AND COMPANY, priority 2014, dated 2018)

What was measured:
Format in all cases: in vivo
[1] = test system: barnyardgrass (Echinochloa crus-galli); test: Test B pre-/postemergence plant response
Procedure, shortened: (§1)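 Scoring used a 0–100 scale (100 = complete control) by visual comparison with untreated plants after approximately 10 days in the greenhouse. Compounds, in surfactant-containing non-phytotoxic solvent, were sprayed onto soil at planting or onto 2–10 cm seedlings.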

corn (Zea mays) [2] = test: Test B pre-/postemergence plant response
Procedure, shortened: as §1

[3] = test system: giant foxtail (Setaria faberii); test: Test B pre-/postemergence plant response
Procedure, shortened: as §1

[4] = test system: pigweed (Amaranthus retroflexus); test: Test B pre-/postemergence plant response
Procedure, shortened: as §1

[5] = test system: wheat (Triticum aestivum); test: Test B pre-/postemergence plant response
Procedure, shortened: as §1

[6] = test system: Italian ryegrass (Lolium multiflorum); test: Test D pre-/postemergence plant response
Procedure, shortened: (§2)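 0 = no effect, 100 = complete control: plants were scored this way by visual comparison with controls 13 to 15 days post-treatment. Application was preemergence to sown loam/sand pots or postemergence to 2–18 cm seedlings in peat-based mix.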

[7] = test system: barnyardgrass (Echinochloa crus-galli); test: Test D pre-/postemergence plant response
Procedure, shortened: as §2

[8] = test system: blackgrass (Alopecurus myosuroides); test: Test D pre-/postemergence plant response
Procedure, shortened: as §2

corn (Zea mays) [9] = test: Test D pre-/postemergence plant response
Procedure, shortened: as §2

[10] = test system: galium (catchweed bedstraw, Galium aparine); test: Test D pre-/postemergence plant response
Procedure, shortened: as §2

[11] = test system: giant foxtail (Setaria faberii); test: Test D pre-/postemergence plant response
Procedure, shortened: as §2

[12] = test system: lambsquarters (Chenopodium album); test: Test D pre-/postemergence plant response
Procedure, shortened: as §2

[13] = test system: morningglory (Ipomoea coccinea); test: Test D pre-/postemergence plant response
Procedure, shortened: as §2

[14] = test system: pigweed (Amaranthus retroflexus); test: Test D pre-/postemergence plant response
Procedure, shortened: as §2

[15] = test system: ragweed (common ragweed, Ambrosia elatior); test: Test D pre-/postemergence plant response
Procedure, shortened: as §2

[16] = test system: waterhemp (common waterhemp, Amaranthus rudis); test: Test D pre-/postemergence plant response
Procedure, shortened: as §2

[17] = 31 g ai/ha, Preemergence, 0 to 100 scale where 0 is no effect and 100 is complete control
[18] = 125 g ai/ha, postemergence, 0 to 100 scale, 0 no effect, 100 complete control
[19] = Postemergence, 31 g ai/ha, 0 to 100 scale (0 no effect, 100 complete control)
[20] = Preemergence, 125 g ai/ha, 0 to 100 scale (0 no effect, 100 complete control)
[21] = Postemergence, 31 g ai/ha, scale 0 to 100 (0 no effect, 100 complete control)
[22] = Postemergence, 62 g ai/ha, scale 0 to 100, 0 no effect, 100 complete control
[23] = Postemergence, 125 g ai/ha, scale 0 to 100, 0 no effect, 100 complete control
[24] = Preemergence, 8 g ai/ha, scale 0 to 100 (0 no effect, 100 complete control)
[25] = Preemergence, 16 g ai/ha, scale 0 to 100 (0 no effect, 100 complete control)
[26] = Preemergence, 31 g ai/ha, scale 0 to 100 (0 no effect, 100 complete control)
[27] = Preemergence, 62 g ai/ha, scale 0 to 100 (0 no effect, 100 complete control)
[28] = Postemergence, 16 g ai/ha, scale 0 to 100 (0 no effect, 100 complete control)

FC(F)(Cl)c1cc(-c2ccccc2Oc2ncc(Cl)cn2)no1 [Compound 143]
15: Plant response rating, Ryegrass, Italian [6, 23] | Plant response rating, Blackgrass [8, 26]
85: Plant response rating, Foxtail, Giant [11, 25] | Plant response rating, Lambsquarters [12, 26] | Plant response rating, Lambsquarters [12, 27]
50: Plant response rating, Foxtail, Giant [11, 23]
98: Plant response rating, Barnyardgrass [7, 27] | Plant response rating, Lambsquarters [12, 22] | Plant response rating, Waterhemp [16, 26]
90: Plant response rating, Barnyardgrass [1, 18] | Barnyardgrass plant response rating [1, 20] | Plant response rating, Pigweed [4, 17] | Plant response rating, Pigweed [4, 19] | Plant response rating, Blackgrass [8, 27] | Plant response rating, Morningglory [13, 22] | Pigweed plant response rating [14, 21] | Plant response rating, Pigweed [14, 24]
0: Ryegrass, Italian plant response rating [6, 21] | Plant response rating, Ryegrass, Italian [6, 22] | Plant response rating, Ryegrass, Italian [6, 24] | Plant response rating, Blackgrass [8, 24] | Plant response rating, Corn (corn (Zea mays) [9]; [24]) | Plant response rating, Corn (corn (Zea mays) [9]; [25]) | Plant response rating, Morningglory [13, 24] | Plant response rating, Ragweed [15, 24] | Plant response rating, Ragweed [15, 25]
30: Plant response rating, Corn (corn (Zea mays) [2]; [18]) | Plant response rating, Wheat [5, 18] | Plant response rating, Blackgrass [8, 23] | Plant response rating, Ragweed [15, 23] | Plant response rating, Ragweed [15, 26]
95: Plant response rating, Waterhemp [16, 24]
70: Plant response rating, Foxtail, Giant [3, 17] | Plant response rating, Ryegrass, Italian [6, 27] | Plant response rating, Barnyardgrass [7, 26] | Galium plant response rating [10, 21] | Plant response rating, Galium [10, 22] | Plant response rating, Lambsquarters [12, 25]
65: Plant response rating, Barnyardgrass [7, 23]
5: Plant response rating, Ryegrass, Italian [6, 25] | Plant response rating, Ryegrass, Italian [6, 26] | Barnyardgrass plant response rating [7, 28] | Barnyardgrass plant response rating [7, 21] | Plant response rating, Barnyardgrass [7, 24] | Corn plant response rating (corn (Zea mays) [9]; [28]) | Corn plant response rating (corn (Zea mays) [9]; [21]) | Plant response rating, Corn (corn (Zea mays) [9]; [22]) | Plant response rating, Corn (corn (Zea mays) [9]; [26]) | Foxtail, Giant plant response rating [11, 28] | Ragweed plant response rating [15, 21]
25: Plant response rating, Lambsquarters [12, 24]
55: Plant response rating, Morningglory [13, 27]
80: Plant response rating, Foxtail, Giant [3, 18] | Plant response rating, Galium [10, 26] | Plant response rating, Galium [10, 27] | Lambsquarters plant response rating [12, 21]
10: Plant response rating, Barnyardgrass [1, 19] | Plant response rating, Foxtail, Giant [3, 19] | Plant response rating, Barnyardgrass [7, 22] | Blackgrass plant response rating [8, 28] | Blackgrass plant response rating [8, 21] | Plant response rating, Blackgrass [8, 25] | Plant response rating, Corn (corn (Zea mays) [9]; [23]) | Plant response rating, Galium [10, 24] | Plant response rating, Galium [10, 25] | Foxtail, Giant plant response rating [11, 21] | Plant response rating, Foxtail, Giant [11, 22] | Plant response rating, Morningglory [13, 25] | Plant response rating, Ragweed [15, 22]
35: Plant response rating, Morningglory [13, 26]
20: Plant response rating, Barnyardgrass [1, 17] | Plant response rating, Wheat [5, 19] | Plant response rating, Barnyardgrass [7, 25] | Plant response rating, Blackgrass [8, 22]
100: Foxtail, Giant plant response rating [3, 20] | Plant response rating, Pigweed [4, 18] | Pigweed plant response rating [4, 20] | Plant response rating, Corn (corn (Zea mays) [9]; [27]) | Plant response rating, Galium [10, 23] | Plant response rating, Foxtail, Giant [11, 26] | Plant response rating, Foxtail, Giant [11, 27] | Plant response rating, Lambsquarters [12, 23] | Plant response rating, Morningglory [13, 23] | Plant response rating, Pigweed [14, 22] | Plant response rating, Pigweed [14, 23] | Plant response rating, Pigweed [14, 25] | Plant response rating, Pigweed [14, 26] | Plant response rating, Pigweed [14, 27] | Waterhemp plant response rating [16, 21] | Plant response rating, Waterhemp [16, 22] | Plant response rating, Waterhemp [16, 23] | Plant response rating, Waterhemp [16, 25] | Plant response rating, Waterhemp [16, 27]
40: Plant response rating, Corn (corn (Zea mays) [2]; [19]) | Plant response rating, Foxtail, Giant [11, 24] | Plant response rating, Ragweed [15, 27]
